# From patent US20120171123A1, “USES AND COMPOSITIONS FOR TREATMENT OF RHEUMATOID ARTHRITIS” (priority 2006, published 2012)
# Marks after values point to notes of the source that are not given here.
# Tests used:
# Type in all cases: in vivo, human
# [1] = tested on: patients with long-standing, moderate to severe RA; experiment: Study 5 (open-label extension, adalimumab 40 mg eow + MTX, into 7th year): long-term efficacy (ACR, DAS28, TJC, SJC, HAQ) and withdrawals; conditions: Year 7
# Procedure: After these trials, patients were eligible to enroll in two separate OLE studies: Study 4 and Study 5. Patients were evaluated for efficacy and safety every 3 months.
# (§1) Efficacy outcomes were evaluated as observed data: DAS28; ACR 20/50/70; Tender Joint Count (TJC); Swollen Joint Count (SJC); and HAQ Disability Index. Baseline demographics and disease characteristics were similar in both Study 4 and Study 5 consistent with moderate to severe RA, as shown below in Table 64: […]
# [2] = tested on: patients with severe, active RA; experiment: Study 2 / Study 3 OLE (adalimumab monotherapy): FACIT-F fatigue
# Procedure: In addition to the SF-36 instrument, the Health Utilities Index Mark 3 (HUI3) and the Functional Assessment of Chronic Illness Therapy-Fatigue (FACIT-F) questionnaires were administered at baseline, 12 weeks, and the end of the study.
# The HUI3 scale is 0-1, with “1” denoting perfect health and “0” denoting death. FACIT-F scores range from 0-52, with higher scores representing less fatigue. The SF-36 includes one multi-item scale that assesses eight different dimensions of health, including physical and psychosocial components. For each dimension a value of 0-100 is given, with higher numbers representing less impairment. Changes in HUI3 of ≧0.03, in FACIT-F of ≧4 and in SF-36 of ≧4.4 (physical subscales) and ≧3.1 (mental subscales) are considered clinically meaningful.
# All patients studied had severe, active RA. Patients' fatigue was measured by the FACIT-F, which is validated for RA.
# FACIT-F was administered at baseline, at 1 or 2 time points during the study, and at the end of the study. The questionnaire asked each patient the following “Below is a list of statements that other people with your illness have said are important. By circling one (1) number per line, please indicate how true each statement has been for you during the past 7 days.” The questions in the questionnaire used to determine the FACIT score included the following, where each patient indicated the appropriate number (0-4): I feel fatigued; I feel weak all over; I feel listless (“washed out”); I feel tired; I have trouble starting things because I am tired; I have trouble finishing things because I am tired; I have energy; I am able to do my usual activities; I need to sleep during the day; I am too tired to eat; I need help doing my usual activities; I am frustrated by being too tired to do the things I want to do; I have to limit my social activity because I am tired. FACIT-F scores range from 0-52, with higher scores representing less fatigue. FACIT-F changes of ≧4 are considered clinically meaningful.
# Data were obtained from a health economics companion study to a pivotal trial of adalimumab, which rolled over into a long-term, open-label extension (OLE) study. […] Patients' fatigue was measured by the FACIT-F questionnaire. FACIT-F was administered at baseline, and at several time points during the study. FACIT-F scores range from 0-52, with higher scores representing less fatigue. Changes in FACIT-F scores of ≧4 were considered clinically meaningful.
# In addition to clinical parameters, the SF-36 instrument, the Health Utilities Index Mark 3 (HUI3), and the Functional Assessment of Chronic Illness Therapy-Fatigue (FACIT-F) questionnaires were administered at baseline, and at weeks 12, 26, 50, 74, 98, 122, 146 and 170, respectively. The HUI3 scale ranges from 0-1, with “1” denoting perfect health and “0” denoting death. FACIT-F scores range from 0-52, with higher scores representing less fatigue. SF-36 scores range from 0-100 with higher scores indicating improvement in HRQoL. Changes in HUI3 scores of ≧0.03, 1 FACIT-F scores of ≧4, 2 and individual SF-36 domain scores of 5-103 are considered clinically meaningful.
# [3] = tested on: patients with long-standing RA; experiment: Study 4: tender and swollen joint counts
# Procedure: At the last visit, 24% of participants had 0 tender joints and 21% of participants had 0 swollen joints.
# as §1
# patients with RA = experiment: RAPID (routine Apgar-like patient index datasheet) score in 4 adalimumab clinical trials; conditions: for RAPID (R326), Difference: baseline vs endpoint
# Procedure: All 1,391 patients in these trials were evaluated in this study. The RAPID index is based on patient self-report data on a Health Assessment Questionnaire (HAQ), recalibrated to 0-10, based on the following criteria: physical function (0-3): 0=0-0.25, 1=0.26-0.75, 2=0.76-1.5, and 3=1.51-3.0; pain visual analog scale (VAS) (0-3): 0=0-10, 1=11-30, 2=31-60, and 3=61-100; and patient's global status VAS (0-4): 0=0-10, 1=11-25, 2=26-50, 3=51-75, and 4=76-100. All patients were classified at baseline as having a DAS28<5.1 or ≧5.1 or RAPID <5.0 or ≧5.0, the higher values for each indicating severe disease. DAS28 was calculated using swollen joint count, tender joint count, patient's global assessment of disease activity and C-reactive protein (CRP) concentration. Spearman rank correlations and box plots to compare RAPID scores with DAS28 were also analyzed.
# Several rescalings of the physical function, pain, and patient's global assessment scales were calculated. The physical function scale is scored 0-3, and was rescaled to 0-3. The pain visual analog scale (VAS) is scored 0-10 and was also rescaled to 0-3. The global VAS is scored 0-10 and was rescaled to 0-4. Thus, the total of the 3 scores ranges from 0-10. Scores were calculated for both continuous and categorical indices. The DAS28 was calculated from the SJC, TJC, patient's global score, and C-reactive protein.
# [4] = Study 2 (adalimumab monotherapy)
# [5] = Study K (adalimumab with other DMARDs)
substance,measurement,setting,value
"adalimumab: human anti-TNF mAb (HUMIRA, Abbott Laboratories), described in U.S. Pat. No. 6,090,382 as D2E7",patients achieving clinical remission (DAS28<2.6),[1],Over 40%
same,FACIT-F change from baseline,[2]; 12 weeks,7.2
same,mean FACIT-F change from baseline,"[2]; week 26 (6 months), monotherapy","8.5 b, c"
same,mean FACIT-F change from baseline,"[2]; week 26 (6 months), monotherapy, listed as ada",8.5
same,mean FACIT-F change from baseline,[2]; week 50,7.3 ^b
same,mean FACIT-F change from baseline,[2]; week 98,7.2 ^b
same,mean FACIT-F change from baseline,[2]; week 146,7.1 ^b
same,mean FACIT-F change from baseline,[2]; week 170,7.2 ^b
same,"SJC (0-66), % change of mean clinical improvement from baseline",[3]; 6 months,58%
same,"TJC (0-68), % change of mean clinical improvement from baseline",[3]; 6 months,64%
same,"SJC (0-66), % change of mean clinical improvement from baseline",[3]; 12 months,67%
same,"TJC (0-68), % change of mean clinical improvement from baseline",[3]; 12 months,69%
same,"SJC (0-66), % change of mean clinical improvement from baseline",[3]; 24 months,69%
same,"TJC (0-68), % change of mean clinical improvement from baseline",[3]; 24 months,72%
same,"SJC (0-66), % change of mean clinical improvement from baseline",[3]; 36 months,68%
same,"TJC (0-68), % change of mean clinical improvement from baseline",[3]; 36 months,75%
same,"SJC (0-66), % change of mean clinical improvement from baseline",[3]; 48 months,61%
same,"TJC (0-68), % change of mean clinical improvement from baseline",[3]; 48 months,78%
same,median number of swollen joints,[3]; end of four years,3
same,median number of tender joints,[3]; end of four years,2
same,participants with 0 swollen joints,[3]; last visit (n=846 analysis),21%
same,participants with 0 tender joints,[3]; last visit (n=846 analysis),24%
same,"RAPID (R326), Endpoint",patients with RA; Study 1 (adalimumab with MTX),3.86
same,"RAPID (R326), Difference",patients with RA; Study 1 (adalimumab with MTX),3.22
same,"RAPID (R326), Endpoint",patients with RA; [4],5.88
same,"RAPID (R326), Difference",patients with RA; [4],2.70
same,"RAPID (R326), Endpoint",patients with RA; Study I (adalimumab with MTX),3.84
same,"RAPID (R326), Difference",patients with RA; Study I (adalimumab with MTX),3.43
same,"RAPID (R326), Endpoint",patients with RA; [5],4.22
same,"RAPID (R326), Difference",patients with RA; [5],2.79
